According to paper PMC4198181, “Gold(I) Complexes of 9-Deazahypoxanthine as Selective Antitumor and Anti-Inflammatory Agents” (PLoS ONE, 2014):

Legend:
[1] = system: G361 malignant melanoma cells; assay: MTT in vitro cytotoxicity, G361; type: cell-based, human; settings: 24 h treatment, read-out: IC50±S.E., G361
Method: In vitro cytotoxic activity was determined by the MTT assay in human breast adenocarcinoma (MCF7; ECACC no. 86012803), human osteosarcoma (HOS; ECACC no. 87070202), lung carcinoma (A549; ECACC no. 86012804), malignant melanoma (G361; ECACC no. 88030401), cervix epitheloid carcinoma (HeLa; ECACC no. 93021013), ovarian carcinoma (A2780; ECACC no. 93112519), cisplatin-resistant ovarian carcinoma (A2780R; […] ECACC no 105092802) cancer cell lines, purchased from European Collection of Cell Cultures (ECACC). […] The primary culture of human hepatocytes (HEP220, batch number HEP220819) was obtained from Biopredic International (France). The culture medium was Williams and HAM's F-12 (1∶1) supplemented with penicillin, streptomycin, ascorbic acid, linoleic acid, holo-transferin, ethanolamine, glucagon, insulin, dexamethasone, pyruvate, glucose, glutamine, amphotericin. The medium was enriched for plating with 2% foetal calf serum (v/v). The medium was exchanged for a serum-free medium the day after and the culture was stabilized for additional 24 h. Thereafter, the cells were ready for treatments. […] The MTT assay was performed spectrophotometrically at 540 nm (TECAN, Schoeller Instruments LLC). The cytotoxicity data were expressed as the percentage of viability, where 100% represented the treatments with vehicle (0.1% DMF or 0.1% DMSO). The cytotoxicity data from the cancer cell lines were acquired from three independent experiments (conducted in triplicate) using cells from different passages. The IC50 values were calculated from viability curves. The results are presented as arithmetic means±standard error of the mean (S.E.).

[2] = system: human cancer cell lines (MCF7, HOS, A549, G361, HeLa, A2780, A2780R, 22Rv1); assay: MTT in vitro cytotoxicity, summary over the panel of human cancer cell lines; type: cell-based; settings: 24 h, MTT; HAuCl4 except on G361; read-out: IC50 against all the cancer cell lines tested (inactive up to the stated concentration)
Method: In vitro cytotoxic activity was determined by the MTT assay in human breast adenocarcinoma (MCF7; ECACC no. 86012803), human osteosarcoma (HOS; ECACC no. 87070202), lung carcinoma (A549; ECACC no. 86012804), malignant melanoma (G361; ECACC no. 88030401), cervix epitheloid carcinoma (HeLa; ECACC no. 93021013), ovarian carcinoma (A2780; ECACC no. 93112519), cisplatin-resistant ovarian carcinoma (A2780R; ECACC no. 93112517) and prostate carcinoma (22Rv1; ECACC no 105092802) cancer cell lines, purchased from European Collection of Cell Cultures (ECACC). The cells were cultured according to the ECACC instructions and they were maintained at 37°C and 5% CO2 in a humidified incubator. The primary culture of human hepatocytes (HEP220, batch number HEP220819) was obtained from Biopredic International (France). The culture medium was Williams and HAM's F-12 (1∶1) supplemented with penicillin, streptomycin, ascorbic acid, linoleic acid, holo-transferin, ethanolamine, glucagon, insulin, dexamethasone, pyruvate, glucose, glutamine, amphotericin. The medium was enriched for plating with 2% foetal calf serum (v/v). The medium was exchanged for a serum-free medium the day after and the culture was stabilized for additional 24 h. Thereafter, the cells were ready for treatments. The cultures were maintained at 37°C and 5% CO2 in a humidified incubator. The cells were treated with complexes 1–5 (at the concentration levels of 0.01, 0.1, 1.0, 5.0, 25.0, and 50.0 µM), starting compounds e.g. HL1–5, AuCl, and cisplatin (applied up to 50 µM) for 24 h, using multi-well culture plates of 96 wells. […]
The cytotoxicity data were expressed as the percentage of viability, where 100% represented the treatments with vehicle (0.1% DMF or 0.1% DMSO). […] The IC50 values were calculated from viability curves. […] The significance of the differences between the results was assessed by the ANOVA analysis with p<0.05 considered to be significant (QC Expert 3.2, Statistical software, TriloByte Ltd., Pardubice, Czech Republic).

[3] = system: TNF-α secretion in LPS-stimulated macrophage-like THP-1 cells; assay: LPS-induced TNF-α secretion in THP-1 macrophages (ELISA); type: cell-based, human; settings: 300 nM, 1 h pretreatment, 24 h after LPS
Method: (§1) For the determination of biological activity, we used the human monocytic leukaemia cell line THP-1 (ECACC, Salisbury, UK). The cells were cultivated at 37°C in the RPMI 1640 medium supplemented with 2 mM L-glutamine, 10% FBS, 100 U/mL of penicillin and 100 µg/mL of streptomycin in a humidified atmosphere containing 5% CO2. Stabilized cells (3rd–15th passage) were split into microtitration plates to get a concentration of 500 000 cells/mL and the differentiation to macrophages was induced by phorbol myristate acetate (PMA) dissolved in dimethyl sulfoxide (DMSO) at the final concentration of 50 ng/ml, and the cells were incubated for 24 h. In comparison with monocytes, differentiated macrophages tend to adhere to the bottoms of the cultivation plates. For next 24 h the cells were incubated with a fresh complete RPMI medium, i.e. containing antibiotics and FBS, without PMA. The medium was then aspirated, and the cells were washed with PBS and cultivated for next 24 hours in serum-free RPMI 1640 medium. These prepared macrophages were used for the detection of inflammatory response.
(§2) Differentiated macrophages were pretreated with 300 nM solutions of the tested complexes, HLn, AuCl, [AuCl(PPh3)], PPh3 and Auranofin dissolved in DMSO (the final DMSO concentration was 0.1%) and with 0.1% DMSO solution itself (vehicle) for 1 h; the given concentrations of the tested compounds lack the cytotoxic effect (cell viability >94%) based on the results of WST-1 test. The inflammatory response in pretreated macrophages was triggered by the addition of 1.0 µg/mL lipopolysaccharide (LPS) dissolved in water, while the control cells (CTRL) remained without the LPS treatment.
(§3) Macrophages, which were pretreated with the tested compounds (complexes 1–5, HLn, AuCl, [AuCl(PPh3)], PPh3 and Auranofin) for 1 h, were incubated with LPS for next 24 h. After this period, the medium was collected and the concentration of TNF-α, and IL-1β was determined by the Instant ELISA Kit according to the manufactures' manual.
(§4) The statistically significant differences between individual groups during anti- inflammatory testing were evaluated using a one-way ANOVA test for statistical analysis, followed by Tukey's post-hoc test for multiple comparisons. GraphPad Prism 5.02 (GraphPad Software Inc., San Diego, CA, USA) was used to perform the analysis. The results are presented as arithmetic means±S.E. values.

[4] = system: IL-1β secretion in LPS-stimulated macrophage-like THP-1 cells; assay: LPS-induced IL-1β secretion in THP-1 macrophages (ELISA); type: cell-based, human; settings: 300 nM, 1 h pretreatment, 24 h after LPS
Method: as §1, §2, §3, §4

IL-1β mRNA = assay: IL-1β gene expression by RT-qPCR in LPS-stimulated THP-1 macrophages; type: cell-based, human; settings: 300 nM, 2 h after LPS, normalised to β-actin
Method: as §1
(§5) In the order to evaluate the expression of TNF-α, IL-1β, and β-actin mRNA, total RNA was isolated directly from the LPS-stimulated THP-1 cells. THP-1 macrophages were pretreated with compounds 2, 5, and Auranofin at the concentration of 300 nM or the vehicle (0.1% DMSO) only. After 1 h of the incubation, the inflammatory response was induced by LPS [except for the control cells (CTRL)]. After 2 h of the incubation with LPS, the medium was aspirated and the total RNA was isolated directly from the cells in cultivation plates using a RealTime Ready Cell Lysis Kit (Roche), according to the manufacturer's instructions.
(§6) The gene expression was quantified by two-step reverse-transcription quantitative (real-time) PCR (RT-qPCR). The reverse transcription step was performed by Transcriptor Universal cDNA Master using cell lysate as a template. […] The results were normalized to the amount of ROX reference dye, and the change in gene expression was determined by the 2^−ΔΔCT method. […]

TNF-α mRNA = assay: TNF-α gene expression by RT-qPCR in LPS-stimulated THP-1 macrophages; type: cell-based, human; settings: 300 nM, 2 h after LPS, normalised to β-actin
Method: as §1, §5, §6

[5] = system: IκB-α degradation (NF-κB signalling pathway); assay: LPS-induced IκB-α degradation (Western blot) in THP-1 macrophages; type: cell-based, human; settings: 300 nM, 30 min after LPS
Method: Macrophage-like THP-1 cells were pretreated with the tested compounds and stimulated by LPS as was describe above. Thirty minutes after the addition of LPS, the medium was aspirated and cells were washed by cold phosphate buffer solution (PBS). Subsequently, the cells were collected using the lysis buffer [50 mM Tris-HCl pH 7.5, 1 mM EGTA, 1 mM EDTA, 1 mM sodium orthovanadate, 50 mM sodium fluoride, 5 mM sodium pyrophosphate, 270 mM sucrose, 0.1% (v/v) Triton X-100, and cOmplete Protease Inhibitor Cocktail (Roche, Germany)] and scraper. The lysis of cells was facilitated by a short (≈30 s) incubation in the ultrasonic water bath. The protein concentration was determined according to Bradford's method. For protein separation, 30 µg of protein was loaded onto the 12% polyacrylamide gel. […] The membranes were incubated with the primary anti-IκB-α antibody at the concentration ratio of 1∶500, or with the primary anti-β-actin at the concentration ration of 1∶5 000 at 4°C for 16 h. After washing, the secondary anti-mouse IgG antibody diluted 1∶2 000 was applied on the membranes and incubated at laboratory temperature (22°C) for 1 h. The amount of the bound secondary antibody was detected colorimetrically by an Opti-4CN Kit according to the manufacturer's manual.

[6] = system: THP-1 monocytic leukaemia cells; assay: WST-1 in vitro cytotoxicity, THP-1; type: cell-based, human; settings: 24 h treatment, WST-1, 0.16–10.00 µM; read-out: IC50±S.E., THP-1
Method: Before the in vitro anti-inflammatory testing, in vitro cytotoxicity on human monocytic leukaemia cells (THP-1, ECACC no. 88081201) was determined using the WST-1 assay. The THP-1 cells (floating monocytes, 500 000 cells/mL) were incubated in 100 µL of the serum-free RPMI 1640 medium and seeded into 96-well plates in triplicate at 37°C. Measurements were taken 24 h after the treatment with the tested compounds dissolved in 0.1% DMSO in the concentration range of 0.16–10.00 µM. Viability was determined by the WST-1 test according to the manufacturer's manual. The amount of the formed formazan (which correlates to the number of metabolically active cells in the culture) was calculated as a percentage of the control cells, which were treated only with 0.1% DMSO and was set-up as 100%. The IC50 values of the tested compounds were calculated from the obtained data. The WST-1 assay was performed spectrophotometrically at 440 nm (FLUOstar Omega, BMG Labtech).
The cytotoxicity data were expressed as the percentage of viability, where 100% represented the treatments with vehicle (0.1% DMF or 0.1% DMSO). The cytotoxicity data from the cancer cell lines were acquired from three independent experiments (conducted in triplicate) using cells from different passages. The IC50 values were calculated from viability curves. The results are presented as arithmetic means±standard error of the mean (S.E.). The significance of the differences between the results was assessed by the ANOVA analysis with p<0.05 considered to be significant (QC Expert 3.2, Statistical software, TriloByte Ltd., Pardubice, Czech Republic).

| SMILES | IC50 [1] | IC50 [2] | effect on LPS-induced TNF-α secretion [3] | effect on LPS-induced IL-1β secretion [4] | effect on IL-1β mRNA transcription (IL-1β mRNA) | effect on TNF-α mRNA transcription (TNF-α mRNA) | effect on LPS-induced IκB degradation [5] | IC50 [6] |
| --- | --- | --- | --- | --- | --- | --- | --- | --- |
| [Cl][Au-]([Cl])([Cl])[Cl].[H+] [HAuCl4, reference compound] | 38.1 ± 2.3 µM | > 50 µM |  |  |  |  |  |  |
| [Au+].[Cl-] [AuCl] |  | > 50 µM | none of the reference compounds, such as AuCl, HLn, [AuCl(PPh3)] and PPh3, exhibited any expected effect | decreased the production of IL-1β by a manner comparable to free ligands |  |  |  |  |
| CC[PH](CC)(CC)[Au][S][C@@H]1O[C@H](COC(C)=O)[C@@H](OC(C)=O)[C@H](OC(C)=O)[C@H]1OC(C)=O [Auranofin, triethylphosphine-(2,3,4,6-tetra-O-acetyl-β-D-thiopyranosato)gold(I), reference compound] |  |  |  |  | significantly reduce the transcription | significantly reduce the transcription | block moderately the IκB degradation | 0.9 ± 0.1 µM |
